The values that follow are results of earlier work, collected in US10137085B2, “Nanoemulsion for transdermal delivery and method of making the same” (Nano and Advanced Materials Institute Limited, priority 2014, dated 2018).

Counter-ions that a name gives are not always drawn. Like-named read-outs stand apart in the source and are kept apart here.

For data set [1] the following is noted: o/w microemulsion with oleyl alcohol and NMP, compared to aqueous solution.

For the compound `COc1ccc([C@@H]2Sc3ccccc3N(CCN(C)C)C(=O)[C@@H]2OC(C)=O)cc1` [diltiazem HCl], the “enhancement of drug permeability” value in data set [1] is recorded as 520 fold. With `C[C@]12CC[C@@H]3c4ccc(O)cc4CC[C@H]3[C@@H]1CC[C@@H]2O` [estradiol], in data set [1], the “enhancement of drug permeability” value is 58 fold.

On to `CN(Cc1cnc2nc(N)nc(N)c2n1)c1ccc(C(=O)N[C@@H](CCC(=O)O)C(=O)O)cc1` [methotrexate], for which the “increase of permeation efficiency through skin” value is recorded as “two- to three” (solid-in-oil nanodispersion vs control aqueous solution) and “approximately 8.8 fold” (solid-in-oil nanodispersion with urea as enhancer vs control aqueous solution, after 24 h).
